Measured values from the supplement of paper PMC10307832.

Columns and labels:
Assay in all cases: relative viability (nuclei count vs DMSO), 5 days (fraction); higher = more cells survive
[1] = compound: Cn1cc(-c2cnn3c(N)c(Br)c([C@@H]4CCCNC4)nc23)cn1 + CC(=O)c1c(C)c2cnc(Nc3ccc(N4CCNCC4)cn3)nc2n(C2CCCC2)c1=O [Palbociclib] (partner 0.5 µM)
Summary of the method: (§1)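 Medians of duplicate plates are given as relative viability. That measure is the nuclei count in treated wells divided by the count in vehicle wells. Counts were taken on 4× images of lung cancer cell lines in 1536-well plates, 5 days after pin-tool dosing the day after seeding with one drug alone or a fixed anchor-drug dose plus five library-drug doses (not always all listed) in √10 steps.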

[2] = compound: Cn1cc(-c2cnn3c(N)c(Br)c([C@@H]4CCCNC4)nc23)cn1 + COc1cccc2cc(-c3nc([C@H]4CC[C@H](C(=O)O)CC4)n4ncnc(N)c34)[nH]c12 [OSI-027] (partner 0.5 µM)
Summary of the method: as §1

[3] = compound: Cn1cc(-c2cnn3c(N)c(Br)c([C@@H]4CCCNC4)nc23)cn1 + COc1cc2c(Oc3ccc(NC(=O)C4(C(=O)Nc5ccc(F)cc5)CC4)cc3F)ccnc2cc1OCCCN1CCOCC1 [Foretinib] (partner 0.25 µM)
Summary of the method: as §1

[4] = compound: Cn1cc(-c2cnn3c(N)c(Br)c([C@@H]4CCCNC4)nc23)cn1
Summary of the method: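 Following overnight incubation at 37 °C, lung cancer cell lines in 1536-well plates were pinned with five library-drug doses (not always all listed) in √10 steps on vehicle-anchored plates. The cells then spent 5 days without medium change before a combined fix, permeabilisation and Hoechst stain, 4× imaging and MetaXpress nuclear counts. Viability is the treated-to-vehicle ratio of nuclei, taken as the median across plates. Only plates with control CV below 25% and at least one doubling passed.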

Cell Line	relative viability ([1]; first compound 0.05 µM)	relative viability ([1]; first compound 0.1581 µM)	relative viability ([1]; first compound 0.5 µM)	relative viability ([1]; first compound 1.581 µM)	relative viability ([1]; first compound 5 µM)	relative viability ([2]; first compound 0.05 µM)	relative viability ([2]; first compound 0.5 µM)	relative viability ([2]; first compound 1.581 µM)	relative viability ([2]; first compound 5 µM)	relative viability ([3]; first compound 0.05 µM)	relative viability ([3]; first compound 0.1581 µM)	relative viability ([3]; first compound 0.5 µM)	relative viability ([3]; first compound 1.581 µM)	relative viability ([3]; first compound 5 µM)	relative viability ([4]; 0.05 µM)	relative viability ([4]; 0.1581 µM)	relative viability ([4]; 0.5 µM)	relative viability ([4]; 1.581 µM)	relative viability ([4]; 5 µM)	relative viability ([2]; first compound 0.1581 µM)
201T	0.362	0.373	0.34	0.322	0.363	0.777	0.656	0.532	0.241	0.999	0.952	1.26	0.554	0.265	0.972	1.01	0.996	0.86	0.746	–
A-427	0.51	0.503	0.508	0.504	0.411	0.495	0.453	0.357	0.31	1.05	1.11	1.01	1.09	0.712	1.04	0.919	1.01	0.784	0.607	0.474
ABC-1	–	1.06	0.872	0.452	0.718	0.518	0.382	0.39	0.264	0.951	1.07	1.02	0.872	0.4	0.938	0.988	0.758	0.566	0.455	0.58
BEN	0.501	0.489	0.497	0.459	0.53	0.481	0.251	0.572	0.295	0.689	0.535	0.563	0.763	0.514	1.05	0.902	0.904	0.972	0.834	0.288
CAL-12T	0.505	0.569	0.476	0.189	0.202	0.554	0.682	0.266	0.121	1.17	1.08	0.965	0.789	0.228	1.03	1.06	1.08	0.68	0.265	0.841
COR-L23	0.345	0.346	0.356	0.231	0.183	0.813	0.671	0.393	0.255	1.07	1.13	1.08	0.907	0.439	1.08	1.26	1.11	0.803	0.45	0.927
COR-L 105	0.411	0.367	0.385	0.41	0.386	0.632	0.688	0.587	0.487	0.83	0.995	0.994	0.782	1.46	0.85	0.85	0.843	0.705	0.656	0.818
Calu-6	–	–	–	–	–	–	–	–	–	0.879	0.876	0.758	0.319	0.134	1.06	0.905	0.828	0.438	0.219	–
ChaGo-K-1	0.956	0.98	0.911	0.869	0.97	0.557	0.61	0.535	0.642	0.937	0.934	0.873	0.888	0.78	0.99	1.08	1.09	0.89	0.997	0.638
EBC-1	–	–	–	–	–	–	–	–	–	0.107	0.0968	0.0834	0.0926	0.0939	1.12	1.16	0.882	0.822	0.869	–
EKVX	0.368	0.376	0.383	0.413	0.355	0.676	0.733	0.71	0.633	0.749	0.925	0.699	0.816	0.469	1.04	1.01	1.07	0.862	0.929	0.75
EMC-BAC-2	0.533	0.52	0.527	0.445	0.43	0.368	0.408	0.37	0.355	1	1.11	1.02	0.977	0.926	0.917	1.03	0.976	0.949	0.827	0.367
EPLC-272H	0.294	0.312	0.311	0.273	0.25	0.256	0.359	0.224	0.166	0.794	0.723	0.603	0.514	0.25	1	0.974	0.896	0.628	0.379	0.309
H3255	0.314	0.342	0.323	0.291	0.277	0.744	0.601	0.584	0.481	0.843	0.998	0.998	0.971	0.83	1.02	0.935	1.03	0.974	0.57	0.523
HARA	0.246	0.264	0.322	0.299	0.158	0.469	0.685	0.408	0.149	1.07	1.05	0.706	0.798	0.207	0.975	1.03	1.31	0.761	0.301	0.606
HCC-15	0.71	0.785	0.721	0.604	0.591	0.781	0.682	0.566	0.533	1.09	1.09	1.05	0.941	1	1.07	1.08	1.06	0.928	0.936	0.739
HCC-44	0.876	0.957	0.978	0.964	0.952	–	0.683	0.414	0.434	–	–	–	–	–	0.918	1.06	1.01	0.994	0.953	0.604
HCC-78	0.445	0.391	0.532	0.439	0.488	–	0.345	0.354	0.517	–	0.666	0.561	0.535	0.576	1	1.04	1.09	0.957	0.749	0.347

Cell Line	relative viability ([1]; first compound 0.05 µM)	relative viability ([1]; first compound 0.1581 µM)	relative viability ([1]; first compound 0.5 µM)	relative viability ([1]; first compound 1.581 µM)	relative viability ([1]; first compound 5 µM)	relative viability ([2]; first compound 0.05 µM)	relative viability ([2]; first compound 0.5 µM)	relative viability ([2]; first compound 1.581 µM)	relative viability ([2]; first compound 5 µM)	relative viability ([3]; first compound 0.05 µM)	relative viability ([3]; first compound 0.1581 µM)	relative viability ([3]; first compound 0.5 µM)	relative viability ([3]; first compound 1.581 µM)	relative viability ([3]; first compound 5 µM)	relative viability ([4]; 0.05 µM)	relative viability ([4]; 0.1581 µM)	relative viability ([4]; 0.5 µM)	relative viability ([4]; 1.581 µM)	relative viability ([4]; 5 µM)	relative viability ([2]; first compound 0.1581 µM)
HCC-366	0.399	0.463	0.359	0.267	0.3	1.03	0.945	0.959	0.952	0.967	0.887	0.93	0.855	0.865	1.04	1.04	0.984	1.06	0.944	1.19
HCC-827	0.48	0.437	0.491	0.471	0.451	0.731	0.71	0.715	0.705	1.09	1.11	1.06	1.02	1.02	0.971	1.08	1.07	1.12	0.945	0.907
HOP-62	0.438	0.5	0.485	0.417	0.334	0.831	0.825	0.555	0.562	1.17	1.16	1.06	1	0.985	1.07	1.16	0.956	1.01	0.812	1.08
IA-LM	–	–	–	–	–	–	–	–	–	1.19	1.23	1.06	0.861	0.54	0.917	0.976	1.05	0.779	0.541	–
LC-2-ad	0.499	0.515	0.441	0.435	0.483	0.806	0.905	0.884	0.736	0.878	0.999	1.09	0.938	0.908	1.02	1.05	1.02	0.899	1.04	0.879
LCLC-97TM1	0.248	0.236	0.242	0.242	0.178	0.459	0.545	0.391	0.487	0.862	1	0.93	0.909	0.956	0.982	1.11	1.1	0.969	0.925	0.558
LCLC-103H	0.521	0.447	0.467	0.515	0.466	0.433	0.516	0.405	0.389	0.72	0.848	0.746	0.674	0.657	1.03	0.986	1.05	0.909	1.03	0.43
LK-2	0.703	0.658	0.678	0.542	0.431	0.146	0.172	0.179	0.168	1.18	1.27	0.887	–	0.901	1.04	0.951	0.836	0.729	0.711	0.162
LOU-NH91	0.544	0.539	0.47	0.506	0.52	0.752	0.684	0.727	0.701	0.928	0.879	0.91	0.926	0.781	0.949	0.985	0.937	0.952	0.811	0.711
LU99A	0.421	0.458	0.386	0.392	0.339	0.285	0.242	0.261	0.207	0.805	0.768	0.821	0.706	0.716	0.952	0.985	0.901	0.949	0.926	0.309
LXF-289	0.618	0.663	0.585	0.555	0.654	0.853	0.82	0.82	0.766	0.996	1.02	1	0.94	1.03	1.03	1.14	1.03	1.01	1.06	0.896
NCI-H23	0.568	0.496	0.552	0.34	0.25	0.589	0.506	0.491	0.268	1.02	0.987	0.907	0.615	0.53	0.91	1.02	0.925	0.573	0.272	0.549
NCI-H596	–	–	–	–	–	0.833	0.643	0.654	0.719	0.871	0.797	0.778	0.83	0.674	0.985	1.15	0.887	0.916	0.766	0.87
NCI-H1299	–	–	–	–	–	–	–	–	–	1.08	1.14	1.12	0.988	0.833	1.03	1.07	1.01	0.926	0.795	–
NCI-H1563	–	–	–	–	–	0.737	0.691	0.711	0.703	0.939	1.02	0.841	0.921	0.875	0.941	0.878	0.966	0.942	0.873	0.779
NCI-H1648	0.208	0.281	0.254	0.305	0.259	0.249	–	0.258	0.261	–	–	–	–	–	0.926	0.958	0.669	0.749	0.83	0.235
NCI-H1703	–	–	–	–	–	–	–	–	–	0.334	0.288	0.337	0.196	0.178	0.925	0.664	0.529	0.347	0.159	–
NCI-H1792	–	0.777	0.663	0.668	0.617	–	0.677	0.574	0.719	–	–	–	–	–	0.869	1.08	0.96	0.575	0.835	0.91
